The target of one assay is T1, human α-synuclein (Homo sapiens, UniProt P37840).
T1 construct: the full-length gene for untagged human α-synuclein was inserted; made in house; host or cells: E. coli BL21(DE3), plasmid derived from pT7 or pET11a
Put plainly: Cell-free Thioflavin T assay of α-synuclein aggregation (αSyn ThT Assay). Conditions: αSyn 50 μM. It counts as biochemical. The procedure: To assess the effects of compounds on aggregation of α-synuclein, a cell-free assay was performed using purified α-synuclein and Thioflavin T. In the assay, human α-synuclein was expressed in E. coli BL21(DE3) from a plasmid derived from pT7 or pET11a into which the full-length gene for untagged human α-synuclein was inserted. Cells were induced at OD600 0.6 with 0.8 mM IPTG for 4 hours, harvested by centrifugation and suspended in a volume of lysis buffer (10 mM Tris, pH 8.0, 1 mM EDTA, and 1 mM PMSF) equivalent to one-tenth the volume of culture and lysed by boiling for 20 minutes. Cell debris was pelleted by centrifugation, clarified lysate was treated with 10% streptomycin sulfate at 136 μL/mL followed by glacial acetic acid at 228 μL/mL, lysate was centrifuged, supernatant was transferred to a fresh tube and protein was precipitated via addition of an equal volume of saturated (100%) ammonium sulfate and incubated at 4° C. on a rocking shaker for 1 hour. The protein was pelleted via centrifugation and washed with an equal volume of 100 mM ammonium acetate in chilled ethanol, pelleted via centrifugation, washed twice with chilled ethanol, dried overnight, resuspended in 50 mM potassium phosphate buffer pH 7.3 or 10 mM Tris pH 7.4, and passed through a 50 kDa cut-off column. Immediately prior to use, the purified α-synuclein was filtered with a 0.2 μm nylon filter. The assay was conducted in 96-well black microplates with a single 1-2 mm glass bead in each well, 20-40 μM ThioflavinT, 1% DMSO, α-synuclein at 50 μM and compounds at 20-100 μM. Plates were sealed with sealing tape (ThermoFisher 232701), incubated at 37° C. in a Tecan Nano F200 plate reader with excitation at 438 nm using a 439 nm filter with a bandwidth of 8 nm, and emission at 495 nm with a 490 nm filter with a bandwidth of 10 nm. During the assay, plates were shaken continuously or were shaken for 999 seconds every 18 minutes. Readings were performed hourly for up to 73 hours. The effect of compounds on α-synuclein aggregation in the assay was determined with data at 36, 47, 48 or 72 hours or from the final timepoint of the assay, prior to or roughly near the time when ThT fluorescence plateaued in the vehicle control wells. The vehicle controls contained all components of the assay except compounds and represented the level of α-synuclein aggregation in the absence of an inhibitor or accelerator. Fluorescence values for each compound with α-synuclein were first adjusted by subtracting the average fluorescence of the compound in the absence of α-synuclein. These adjusted values were normalized by dividing them by the average fluorescence at the same timepoint in the vehicle control wells, and the average normalized fluorescence with the compound was expressed as a percentage of the average fluorescence observed in untreated controls. Percent inhibition of α-synuclein aggregation by a compound was determined by subtracting the percent average fluorescence with the compound relative to the average vehicle control from 100%. A higher positive percent inhibition reflects greater inhibition of α-synuclein aggregation, while a negative percent inhibition reflects potentiation of α-synuclein aggregation.
Alternate concentrations of Thioflavin T may be used in the assay and may affect the fluorescent signal and sensitivity of the assay. Alternate concentrations of α-synuclein may be used and such alterations may affect aggregation kinetics of α-synuclein in the assay. Alternate concentrations of compounds may be tested in the assay, and dose-responses may be evaluated. Additional reagents may be added to the assay which may affect aggregation kinetics of α-synuclein depending on their concentration, including detergents such as sodium dodecyl sulfate, sodium chloride, dithiotreitol, or bovine serum albumin. Shaking may be included at alternate intervals in the assay and may affect α-synuclein aggregation kinetics. […]

A further assay addresses T2, E. coli CsgA (Escherichia coli, UniProt P28307).
T2 construct: made in house; host or cells: E. coli NEB 3016 slyD::kan, pET11d
Put plainly: In vitro ThioflavinT assay of CsgA aggregation (CsgA ThT Assay). It is filed as biochemical. Conditions: for remaining activity at 100 µM: compound 100 μM. The method in brief: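 Purified C-terminal His-tagged CsgA, monomerised by desalting and 30-kDa filtration, at 2-20 μM with 20-40 μM ThT in 50 mM potassium phosphate pH 7.3, 1% DMSO, compounds 3.125-200 uM; room temperature, fluorescence (ex 438/em 495 nm) read every 15 min. Background-subtracted signal expressed as percent inhibition versus vehicle at 6-6.5 or 8-9 h, or as percent control AUC.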

Where [1] appears, read: mean % inhibition of αSyn aggregation relative to DMSO control, compounds at 100 μM, read-out: αSyn ThT Assay % Inhibition.
[2] abbreviates: compounds at 100 μM, class symbol, read-out: αSyn ThT Assay % Inhibition (activity range).
[3] abbreviates: read-out: CsgA ThT Assay (10 μM CsgA) % Control AUC at 1005 minutes, 25 μM (activity range), CsgA 10 μM, black plates, compound 25 μM, 1005 minutes, class symbol.
Where [4] appears, read: read-out: CsgA ThT Assay (10 μM CsgA) % Control AUC at 1005 minutes, 25 μM, mean AUC as % of DMSO control, CsgA 10 μM, black plates, compound 25 μM, 1005 minutes.
Setting [5] is: read-out: CsgA ThT Assay (10 μM CsgA) % Control AUC at 1005 minutes, 100 μM (activity range), CsgA 10 μM, black plates, 1005 minutes, class symbol.
[6] abbreviates: read-out: CsgA ThT Assay (10 μM CsgA) % Control AUC at 1005 minutes, 100 μM, mean AUC as % of DMSO control, CsgA 10 μM, black plates, 1005 minutes.
[7] abbreviates: class symbol, compounds 100 μM, read-out: αSyn ThT Assay % inhibition, activity range.
[8] abbreviates: mean percent inhibition relative to DMSO control, compounds 100 μM, read-out: αSyn ThT Assay % inhibition.
Where [9] appears, read: read-out: CsgA ThT Assay (2 μM CsgA) % Control Bmax 25 μM, activity range, class symbol, CsgA 2 μM, white plates, compound 25 μM.
Setting [10] is: read-out: CsgA ThT Assay (2 μM CsgA) % Control Bmax 25 μM, mean Bmax as percentage of DMSO control, CsgA 2 μM, white plates, compound 25 μM.
Setting [11] is: read-out: CsgA ThT Assay (2 μM CsgA) % Control Bmax 100 μM, activity range, class symbol, CsgA 2 μM, white plates.
[12] abbreviates: read-out: CsgA ThT Assay (2 μM CsgA) % Control Bmax 100 μM, mean Bmax as percentage of DMSO control, CsgA 2 μM, white plates.

Structures are written as SMILES. Like-named read-outs stand apart in the source and are kept apart here. A value given as a limit tells only on which side of the number the result lay.

T2 sequence (P28307 23-151): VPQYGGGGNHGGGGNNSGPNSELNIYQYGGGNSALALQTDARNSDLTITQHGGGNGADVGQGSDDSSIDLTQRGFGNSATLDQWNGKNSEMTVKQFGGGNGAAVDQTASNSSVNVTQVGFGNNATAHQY

In the case of `Nc1c(Cc2cccc3ccccc23)c(-c2cccc(C(F)(F)F)c2)c2scc(C(=O)O)n2c1=O` [Compound 050, 6-amino-7-(naphthalen-1-ylmethyl)-5-oxo-8-(3-(trifluoromethyl)phenyl)-5H-thiazolo[3,2-a]pyridine-3-carboxylic acid], the inhibition at 100 µM was 49% on human α-synuclein (setting [1]) and 31 to 60% at human α-synuclein (setting [2]). In addition, the remaining activity at 25 µM on E. coli CsgA (setting [3]) was 31 to 60%; at E. coli CsgA (setting [4]) it was 36%. Besides, the values for the remaining activity at 100 µM at E. coli CsgA (setting [5]) and on E. coli CsgA (setting [6]) were 11 to 31% and 22%, respectively.

For `O=C(O)c1csc2c(-c3cccc(C(F)(F)F)c3)c(Cc3cccc4ccccc34)cc(=O)n12` [Compound 019, 7-(naphthalen-1-ylmethyl)-5-oxo-8-(3-(trifluoromethyl)phenyl)-5H-thiazolo[3,2-a]pyridine-3-carboxylic acid], the inhibition at 100 µM on human α-synuclein (setting [1]) is 41%; on human α-synuclein (setting [2]) it was 31 to 60%. Further, the remaining activity at 25 µM at E. coli CsgA (setting [3]) was above 60%; at E. coli CsgA (setting [4]), 69%. Further, the remaining activity at 100 µM at E. coli CsgA (setting [5]) is above 60%; on E. coli CsgA (setting [6]), 104%.

On to `CN1CC(C(=O)O)n2c(c(-c3cccc(C(F)(F)F)c3)c(Cc3cccc4ccccc34)cc2=O)S1(=O)=O` (single isomer, unassigned) [Compound 008a, 2-methyl-8-(naphthalen-1-ylmethyl)-6-oxo-9-(3-(trifluoromethyl)phenyl)-3,4-dihydro-2H,6H-pyrido[1,2-e][1,2,5]thiadiazine-4-carboxylic acid 1,1-dioxide], for which the inhibition at 100 µM on human α-synuclein (setting [1]) was 16%. For the same compound, the “αSyn ThT Assay % Inhibition (activity range)” value at human α-synuclein (compounds at 100 μM, class symbol) is listed as “(+) ((+) represents 11 to 30)”. For the same compound, the remaining activity at 25 µM was above 60% on E. coli CsgA (setting [3]) and 71% at E. coli CsgA (setting [4]). The remaining activity at 100 µM on E. coli CsgA (setting [5]) was 31 to 60%; at E. coli CsgA (setting [6]) it was 38%.

As for `CN1CC(C(=O)O)n2c(c(-c3cccc(C(F)(F)F)c3)c(Cc3ccc(N)c4ccccc34)cc2=O)S1(=O)=O` (stereo not shown) [Compound 040], the inhibition at 100 µM was 61% at human α-synuclein (setting [1]) and above 60% on human α-synuclein (setting [2]). The remaining activity at 25 µM on E. coli CsgA (setting [3]) is above 60%; on E. coli CsgA (setting [4]), 78%. Also, the remaining activity at 100 µM on E. coli CsgA (setting [5]) is below 10%; at E. coli CsgA (setting [6]) it was 8%.

For `O=C(O)C1CS(=O)(=O)c2c(-c3cccc(C(F)(F)F)c3)c(Cc3cccc4ccccc34)cc(=S)n21` (single isomer, unassigned) [Compound 014a, 7-(naphthalen-1-ylmethyl)-5-thioxo-8-(3-(trifluoromethyl)phenyl)-2,3-dihydro-5H-thiazolo[3,2-a]pyridine-3-carboxylic acid 1,1-dioxide], the inhibition at 100 µM is 68% on human α-synuclein (setting [1]) and above 60% at human α-synuclein (setting [2]). The “CsgA ThT Assay (10 μM CsgA) % Control AUC at 1005 minutes, 25 μM (activity range)” value on E. coli CsgA (CsgA 10 μM, black plates, compound 25 μM, 1005 minutes, class symbol) is given as “(++) (% control AUC of 31 to 60%)”. On E. coli CsgA (mean AUC as % of DMSO control, CsgA 10 μM, black plates, compound 25 μM, 1005 minutes), the “CsgA ThT Assay (10 μM CsgA) % Control AUC at 1005 minutes, 25 μM” value came to 37%. The remaining activity at 100 µM at E. coli CsgA (setting [5]) was 11 to 31%; at E. coli CsgA (setting [6]) it was 29%.

Consider `CC(C)CNC(=O)c1c(Cc2cccc3ccccc23)c(-c2cccc(C(F)(F)F)c2)c2n(c1=O)C(C(=O)O)CN(C)S2(=O)=O` (stereo not shown) [Compound 159, 7-(isobutylcarbamoyl)-2-methyl-8-(naphthalen-1-ylmethyl)-6-oxo-9-(3-(trifluoromethyl)phenyl)-3,4-dihydro-2H,6H-pyrido[1,2-e][1,2,5]thiadiazine-4-carboxylic acid 1,1-dioxide], for which the inhibition at 100 µM was above 60% on human α-synuclein (setting [7]) and 83% at human α-synuclein (setting [8]). The remaining activity at 25 µM on E. coli CsgA (setting [9]) was above 60%; on E. coli CsgA (setting [10]), 64%. Moreover, the remaining activity at 100 µM at E. coli CsgA (setting [11]) was above 60%; at E. coli CsgA (setting [12]), 76%.

For `CCCN1CC(C(=O)O)n2c(c(-c3cccc(C(F)(F)F)c3)c(Cc3cccc4ccccc34)c(N3CCCC3=O)c2=O)S1(=O)=O` (stereo not shown) [Compound 151, 8-(naphthalen-1-ylmethyl)-6-oxo-7-(2-oxopyrrolidin-1-yl)-2-propyl-9-(3-(trifluoromethyl)phenyl)-3,4-dihydro-2H,6H-pyrido[1,2-e][1,2,5]thiadiazine-4-carboxylic acid 1,1-dioxide], the inhibition at 100 µM at human α-synuclein (setting [7]) is above 60%; on human α-synuclein (setting [8]), 61%. The remaining activity at 25 µM at E. coli CsgA (setting [9]) was above 60%; at E. coli CsgA (setting [10]) it was 67%. Besides, the results for the remaining activity at 100 µM at E. coli CsgA (setting [11]) and on E. coli CsgA (setting [12]) were above 60% and 73%, respectively.

On to `COc1cccc(CN2CC(C(=O)O)n3c2c(-c2cccc(C(F)(F)F)c2)c(Cc2cccc4ccccc24)c(Cl)c3=O)c1` (stereo not shown) [Compound 191, 6-chloro-1-(3-methoxybenzyl)-7-(naphthalen-1-ylmethyl)-5-oxo-8-(3-(trifluoromethyl)phenyl)-1,2,3,5-tetrahydroimidazo[1,2-a]pyridine-3-carboxylic acid], for which the inhibition at 100 µM is 31 to 60% at human α-synuclein (setting [7]) and 55% on human α-synuclein (setting [8]). Besides, the remaining activity at 25 µM on E. coli CsgA (setting [9]) was 31 to 60%; on E. coli CsgA (setting [10]), 58%. The remaining activity at 100 µM at E. coli CsgA (setting [11]) was 31 to 60%; on E. coli CsgA (setting [12]), 43%.

On to `CCCN1CC(C(=O)O)n2c(c(-c3cccc(C(F)(F)F)c3)c(Cc3cccc4ccccc34)c(OC3CCCC3)c2=O)S1(=O)=O` (stereo not shown) [Compound 144, 7-(cyclopentyloxy)-8-(naphthalen-1-ylmethyl)-6-oxo-2-propyl-9-(3-(trifluoromethyl)phenyl)-3,4-dihydro-2H,6H-pyrido[1,2-e][1,2,5]thiadiazine-4-carboxylic acid 1,1-dioxide], for which the results for the inhibition at 100 µM on human α-synuclein (setting [7]) and on human α-synuclein (setting [8]) were 11 to 30% and 29%, respectively. Further, the remaining activity at 25 µM at E. coli CsgA (setting [9]) is above 60%; at E. coli CsgA (setting [10]), 77%.

By inhibition is commonly meant the relative decrease from the control value, in per cent.

The values above are taken from US20230131899A1, “INHIBITORS OF MICROBIALLY INDUCED AMYLOID” (Axial Therapeutics, Inc., priority 2020, published 2023).
